From patent publication US11000033B2, “Ketone or oxime compound, and herbicide” (NISSAN CHEMICAL CORPORATION, priority 2014, dated 2021)

How the values were obtained:
Type in all cases: in vivo
Setaria viridis = assay: Test Example 4: herbicidal effect by soil treatment (symbol G); conditions: for G: Setaria viridis, herbicidal effect grade: 320 g/ha
Summary of the method: (§1)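 Seeds were sown in sterilized diluvial soil, covered with about 1.5 cm of soil, and the soil surface was sprayed with a water-diluted emulsion of the compound at a predetermined rate. Plants grew in a greenhouse at 25° C. to 30° C.; effects were scored visually 3 weeks after application.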

wheat = assay: Test Example 5: effect on crop by foliage application, plastic box (symbol e); conditions: 320 g/ha, 3 weeks after application
Summary of the method: (§2)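 A greenhouse held between 25° C. and 30° C. was used to grow plants sown spot-wise, beneath ~1.5 cm of soil, in boxes of sterilized diluvial soil.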

Avena fatua = assay: Test Example 5: herbicidal effect by foliage application, plastic box (symbol I); conditions: 320 g/ha, 3 weeks after application
Summary of the method: (§3)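 Visual herbicidal score, taken three weeks post-application, of seedlings sprayed on the foliage with water-diluted emulsion at a predetermined amount; plants were 14 days old, greenhouse-raised at 25° C. to 30° C.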

Stellaria media = assay: Test Example 4: herbicidal effect by soil treatment (symbol P); conditions: for P: Stellaria media, herbicidal effect grade: 320 g/ha
Summary of the method: as §1

Galium spurium [1] = assay: Test Example 5: herbicidal effect by foliage application, plastic box (symbol Q); conditions: 320 g/ha, 3 weeks after application
Summary of the method: as §3

rapeseed = assay: Test Example 5: effect on crop by foliage application, plastic box (symbol g); conditions: 320 g/ha, 3 weeks after application
Summary of the method: as §2

transplanted rice plant = assay: Test Example 1: effect on crop, application before weed generation in submerged conditions (symbol a); conditions: application herbicide amount 320 g/ha
Summary of the method: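 Alluvial soil pots flooded to 4 cm water, sown with Echinochloa oryzacola, Scirpus juncoides and Monochoria vaginalis, then transplanted with 2.5 leaf stage rice seedlings; pre-emergence application. Greenhouse 25° C. to 30° C.; scored 0–5 by herbicidal ratio 3 weeks after application.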

[2] = test system: directly sowed rice plant; assay: Test Example 3: effect on crop by foliage application, Wagner pot (symbol b); conditions: application herbicide amount 320 g/ha
Summary of the method: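 Wagner pot (1/10000 are), alluvial soil, submerged 0.1–0.5 cm; sown E. crus-galli var. crus-galli, L. chinensis, C. difformis, rice; greenhouse 25–30 °C.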

Veronica persica = assay: Test Example 4: herbicidal effect by soil treatment (symbol R); conditions: for R: Veronica persica, herbicidal effect grade: 320 g/ha
Summary of the method: as §1

Abutilon theophrasti = assay: Test Example 4: herbicidal effect by soil treatment (symbol M); conditions: for M: Abutilon theophrasti, herbicidal effect grade: 320 g/ha
Summary of the method: as §1

Monochoria vaginalis = assay: Test Example 1: herbicidal activity, application before weed generation in submerged conditions (symbol C); conditions: application herbicide amount 320 g/ha
Summary of the method: (§4)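 Paddy pre-emergence test. Formulated emulsion, water-diluted to a predetermined rate, is applied to floodwater on sowing day; rice transplanted at 2.5 leaves. Effect read at 3 weeks on a 0–5 herbicidal-ratio scale.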

Lolium multiflorum Lam. = assay: Test Example 5: herbicidal effect by foliage application, plastic box (symbol K); conditions: 320 g/ha, 3 weeks after application
Summary of the method: as §3

Apera spica-venti [3] = assay: Test Example 4: herbicidal effect by soil treatment (symbol L); conditions: for L: Apera spica-venti, herbicidal effect grade: 320 g/ha
Summary of the method: as §1

[4] = test system: Echinochloa oryzacola Vasing.; assay: Test Example 1: herbicidal activity, application before weed generation in submerged conditions (symbol A); conditions: application herbicide amount 320 g/ha
Summary of the method: as §4

Digitaria ciliaris = assay: Test Example 5: herbicidal effect by foliage application, plastic box (symbol F); conditions: 320 g/ha, 3 weeks after application
Summary of the method: as §3

Galium spurium [5] = assay: Test Example 4: herbicidal effect by soil treatment (symbol Q); conditions: for Q: Galium spurium, herbicidal effect grade: 320 g/ha
Summary of the method: as §1

Scirpus juncoides = assay: Test Example 1: herbicidal activity, application before weed generation in submerged conditions (symbol B); conditions: application herbicide amount 320 g/ha
Summary of the method: as §4

Apera spica-venti [6] = assay: Test Example 5: herbicidal effect by foliage application, plastic box (symbol L); conditions: 320 g/ha, 3 weeks after application
Summary of the method: as §3

[7] = application herbicide amount 320 g/ha

Row | Structure (SMILES) | Effect grade on crop, a: transplanted rice plant (transplanted rice plant) | effect on crop b (directly sowed rice plant), grade 0-5 [2] | Herbicidal effect grade, C: Monochoria vaginalis (Monochoria vaginalis) | Herbicidal effect grade, A: Echinochloa oryzacola Vasing. [4] | Herbicidal effect grade, B: Scirpus juncoides (Scirpus juncoides) | G: Setaria viridis, herbicidal effect grade (Setaria viridis) | e: wheat, effect on crop (criteria 0-5) (wheat) | I: Avena fatua, herbicidal effect (criteria 0-5) (Avena fatua) | P: Stellaria media, herbicidal effect grade (Stellaria media) | Q: Galium spurium, herbicidal effect (criteria 0-5) (Galium spurium [1]) | g: rapeseed, effect on crop (criteria 0-5) (rapeseed) | R: Veronica persica, herbicidal effect grade (Veronica persica) | M: Abutilon theophrasti, herbicidal effect grade (Abutilon theophrasti) | K: Lolium multiflorum Lam., herbicidal effect (criteria 0-5) (Lolium multiflorum Lam.) | L: Apera spica-venti, herbicidal effect grade (Apera spica-venti [3]) | F: Digitaria ciliaris, herbicidal effect (criteria 0-5) (Digitaria ciliaris) | Q: Galium spurium, herbicidal effect grade (Galium spurium [5]) | L: Apera spica-venti, herbicidal effect (criteria 0-5) (Apera spica-venti [6]) | also measured
1 | CON=C(C)CC1CC(OS(C)(=O)=O)=C(c2c(C)cc(C)cc2C)C1=O (stereo not drawn) [1-006] | 4 (Herbicidal ratio of 70% or higher and lower than 90%) | 5 (Herbicidal ratio of 90% or more (almost completely withered)) | 3 (Herbicidal ratio of 40% or higher and lower than 70%) | 5 (Herbicidal ratio of 90% or more (almost completely withered)) | 3 (Herbicidal ratio of 40% or higher and lower than 70%) | – | – | – | – | – | – | – | – | – | – | – | – | – | G (Setaria viridis) herbicidal effect grade (Setaria viridis; [7]): 4 (Herbicidal ratio of 70% or higher and lower than 90%); e: wheat, effect on crop grade (wheat): 3 (Herbicidal ratio of 40% or higher and lower than 70%); I: Avena fatua, herbicidal effect grade (Avena fatua): 5 (Herbicidal ratio of 90% or more (almost completely withered)); P (Stellaria media) herbicidal effect grade (Stellaria media; [7]): 0 (Herbicidal ratio of 5% or lower (almost no effect)); Q: Galium spurium, herbicidal effect grade (Galium spurium [1]): 0 (Herbicidal ratio of 5% or lower (almost no effect)); g: rapeseed, effect on crop grade (rapeseed): 3 (Herbicidal ratio of 40% or higher and lower than 70%); R (Veronica persica) herbicidal effect grade (Veronica persica; [7]): 0 (Herbicidal ratio of 5% or lower (almost no effect)); M (Abutilon theophrasti) herbicidal effect grade (Abutilon theophrasti; [7]): 4 (Herbicidal ratio of 70% or higher and lower than 90%); K: Lolium multiflorum Lam., herbicidal effect grade (Lolium multiflorum Lam.): 5 (Herbicidal ratio of 90% or more (almost completely withered)); L (Apera spica-venti) herbicidal effect grade (Apera spica-venti [3]; [7]): 5 (Herbicidal ratio of 90% or more (almost completely withered)); F: Digitaria ciliaris, herbicidal effect grade (Digitaria ciliaris): 5 (Herbicidal ratio of 90% or more (almost completely withered)); Q (Galium spurium) herbicidal effect grade (Galium spurium [5]; [7]): 0 (Herbicidal ratio of 5% or lower (almost no effect)); L: Apera spica-venti, herbicidal effect grade (Apera spica-venti [6]): 5 (Herbicidal ratio of 90% or more (almost completely withered))
2 | CON=C(C)CC1CC(OC(=O)C(CSC)=NOC)=C(c2c(C)cc(C)cc2C)C1=O (stereo not drawn) [1-098] | 5 (Herbicidal ratio of 90% or more (almost completely withered)) | 5 (Herbicidal ratio of 90% or more (almost completely withered)) | 4 (Herbicidal ratio of 70% or higher and lower than 90%) | 5 (Herbicidal ratio of 90% or more (almost completely withered)) | 5 (Herbicidal ratio of 90% or more (almost completely withered)) | 5 (Herbicidal ratio of 90% or more (almost completely withered)) | 5 (Herbicidal ratio of 90% or more (almost completely withered)) | 5 (Herbicidal ratio of 90% or more (almost completely withered)) | 0 (Herbicidal ratio of 5% or lower (almost no effect)) | 0 (Herbicidal ratio of 5% or lower (almost no effect)) | 5 (Herbicidal ratio of 90% or more (almost completely withered)) | 0 (Herbicidal ratio of 5% or lower (almost no effect)) | 4 (Herbicidal ratio of 70% or higher and lower than 90%) | 5 (Herbicidal ratio of 90% or more (almost completely withered)) | 5 (Herbicidal ratio of 90% or more (almost completely withered)) | 5 (Herbicidal ratio of 90% or more (almost completely withered)) | 0 (Herbicidal ratio of 5% or lower (almost no effect)) | 5 (Herbicidal ratio of 90% or more (almost completely withered)) | –
3 | CON=C(C)CC1CC(OC(=O)c2nc(C)sc2C)=C(c2c(C)cc(C)cc2C)C1=O (stereo not drawn) [1-101] | 5 (Herbicidal ratio of 90% or more (almost completely withered)) | 5 (Herbicidal ratio of 90% or more (almost completely withered)) | 2 (Herbicidal ratio of 20% or higher and lower than 40%) | 5 (Herbicidal ratio of 90% or more (almost completely withered)) | 5 (Herbicidal ratio of 90% or more (almost completely withered)) | 5 (Herbicidal ratio of 90% or more (almost completely withered)) | 5 (Herbicidal ratio of 90% or more (almost completely withered)) | 5 (Herbicidal ratio of 90% or more (almost completely withered)) | 0 (Herbicidal ratio of 5% or lower (almost no effect)) | 0 (Herbicidal ratio of 5% or lower (almost no effect)) | 5 (Herbicidal ratio of 90% or more (almost completely withered)) | 0 (Herbicidal ratio of 5% or lower (almost no effect)) | 5 (Herbicidal ratio of 90% or more (almost completely withered)) | 5 (Herbicidal ratio of 90% or more (almost completely withered)) | 5 (Herbicidal ratio of 90% or more (almost completely withered)) | 5 (Herbicidal ratio of 90% or more (almost completely withered)) | 0 (Herbicidal ratio of 5% or lower (almost no effect)) | 5 (Herbicidal ratio of 90% or more (almost completely withered)) | –
4 | CON=C(C)CON=C(C)CC1CC(O)=C(c2c(C)cc(C)cc2C)C1=O (stereo not drawn) [1-105] | 5 (Herbicidal ratio of 90% or more (almost completely withered)) | 5 (Herbicidal ratio of 90% or more (almost completely withered)) | 4 (Herbicidal ratio of 70% or higher and lower than 90%) | 5 (Herbicidal ratio of 90% or more (almost completely withered)) | 5 (Herbicidal ratio of 90% or more (almost completely withered)) | 5 (Herbicidal ratio of 90% or more (almost completely withered)) | 5 (Herbicidal ratio of 90% or more (almost completely withered)) | 5 (Herbicidal ratio of 90% or more (almost completely withered)) | 0 (Herbicidal ratio of 5% or lower (almost no effect)) | 2 (Herbicidal ratio of 20% or higher and lower than 40%) | 4 (Herbicidal ratio of 70% or higher and lower than 90%) | 0 (Herbicidal ratio of 5% or lower (almost no effect)) | 1 (Herbicidal ratio of 5% or higher and lower than 20%) | 5 (Herbicidal ratio of 90% or more (almost completely withered)) | 5 (Herbicidal ratio of 90% or more (almost completely withered)) | 5 (Herbicidal ratio of 90% or more (almost completely withered)) | 0 (Herbicidal ratio of 5% or lower (almost no effect)) | 5 (Herbicidal ratio of 90% or more (almost completely withered)) | –
